Test results: patent US20240124410A1, “SMALL MOLECULES AND THEIR USE AS MALT1 INHIBITORS” (University of Pittsburgh - Of the Commonwealth System of …, priority 2021, published 2024)

Experiments:
[1] = system: anti-CD3/CD28-induced phosphorylation of IKKα/β; assay: Phosphorylation of IKKα/β in Jurkat T cells (Western blot); type: cell-based; conditions: 20 hours pretreatment, anti-CD3/CD28 for 0-20 minutes
Experimental: The DLBCL cell lines, OCI-Ly1, OCI-Ly3, and OCI-Ly7, were provided by Dr. Mark Minden (University Health Network, Toronto, Ontario, Canada). TMD8 cells were provided by Dr. Louis Staudt (NCI, NIH). OCI-Ly1 and OCI-Ly7 cells were cultured in Iscove's Modified Dulbecco's Medium (IMDM) supplemented with 10% FBS. OCI-Ly3 cells were cultured in IMDM supplemented with 20% FBS. TMD8 and Jurkat T cells were cultured in RPMI1640 medium with 10% FBS. HEK293T cells were cultured in DMEM medium with 10% FBS. All media were supplemented with 100 U/ml penicillin streptomycin. Stimulation of Jurkat cells was conducted by adding 5 ng/ml of phorbol 12-myristatel3 acetate (PMA)(Sigma-Aldrich) and 1μM ionomycin (Calbiochem), or by adding 5-10 μL/mL of ImmunoCult Human CD3/CD28 ([…] Technologies).

[2] = molecular target: T1, ADRB1 (Homo sapiens, UniProt P08588); assay: Eurofins SAFETYscan 78-target panel, off-target effects, ADRB1; type: biochemical; conditions: antagonist / blocker / inhibitor mode
T1 construct: Eurofins
T1 sequence (P08588 whole entry): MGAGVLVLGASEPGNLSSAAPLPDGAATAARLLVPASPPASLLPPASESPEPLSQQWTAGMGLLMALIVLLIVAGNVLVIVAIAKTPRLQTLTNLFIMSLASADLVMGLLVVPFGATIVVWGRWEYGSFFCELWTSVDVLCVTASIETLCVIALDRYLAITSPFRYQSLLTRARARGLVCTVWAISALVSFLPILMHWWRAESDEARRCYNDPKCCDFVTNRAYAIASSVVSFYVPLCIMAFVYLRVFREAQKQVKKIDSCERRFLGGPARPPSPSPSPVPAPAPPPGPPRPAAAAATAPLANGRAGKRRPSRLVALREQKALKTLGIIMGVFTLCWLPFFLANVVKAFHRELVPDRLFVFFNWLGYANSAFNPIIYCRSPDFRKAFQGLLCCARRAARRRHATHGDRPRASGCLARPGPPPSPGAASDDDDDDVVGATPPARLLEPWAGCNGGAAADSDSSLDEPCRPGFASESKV
Experimental: (§1) FIG. 9. Table summarizing the Eurofins analysis of potential off-target effects of M1i-124. […] values above 10 μM are generally considered to be acceptable. FIG. 10. Representative hematoxylin and eosin (H&E) staining of organ sections (lung, heart, kidney, liver and adrenal) from control and M1i-124 treated mice described in FIG. 6.
(§2) Studies were performed using the services of Touchstone Biosciences and Eurofins Pharma Discovery Services. […] All blood samples (30-50 ul per sample) were taken via tail vein at 5, 15, and 30 minutes, and 1, 2, 4, 6, 8, and 24 hours after dosing. Blood samples are collected in Greiner MiniCollect K2 EDTA tubes, placed on ice, and within 30 minutes, centrifuged at 15,000 g for 5 minutes to obtain plasma samples. All plasma samples are stored at −70° C. until analysis. Plasma samples were prepared for analysis by LC-MS/MS, and key PK parameters, including terminal half-life (t 112), initial plasma concentration (C0), area under the plasma concentration vs. time curve (AUC), volume of distribution at steady-state (Vss), total plasma clearance (CLp), and mean residence time (MRT), were measured.
(§3) Assay details are available through Eurofins.

[3] = molecular target: T2, CHRM2 (Homo sapiens, UniProt P08172); assay: Eurofins SAFETYscan 78-target panel, off-target effects, CHRM2; type: biochemical; conditions: antagonist / blocker / inhibitor mode
T2 construct: Eurofins
T2 sequence (P08172 1-466): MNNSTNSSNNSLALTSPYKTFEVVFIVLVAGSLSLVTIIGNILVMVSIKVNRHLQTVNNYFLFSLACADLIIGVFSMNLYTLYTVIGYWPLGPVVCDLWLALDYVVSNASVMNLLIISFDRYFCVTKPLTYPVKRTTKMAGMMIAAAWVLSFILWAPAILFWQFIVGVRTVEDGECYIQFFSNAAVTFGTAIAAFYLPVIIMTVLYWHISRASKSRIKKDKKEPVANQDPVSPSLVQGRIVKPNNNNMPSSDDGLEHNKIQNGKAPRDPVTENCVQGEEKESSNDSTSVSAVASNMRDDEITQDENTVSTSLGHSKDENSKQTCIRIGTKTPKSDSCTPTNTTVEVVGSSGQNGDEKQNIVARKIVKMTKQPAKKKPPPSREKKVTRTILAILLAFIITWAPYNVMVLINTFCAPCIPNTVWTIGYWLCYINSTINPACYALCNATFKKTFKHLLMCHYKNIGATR
Experimental: as §1, §2, §3

[4] = molecular target: T3, CNR2 (Homo sapiens, UniProt P34972); assay: Eurofins SAFETYscan 78-target panel, off-target effects, CNR2; type: biochemical; conditions: antagonist / blocker / inhibitor mode
T3 construct: Eurofins
T3 sequence (P34972 whole entry): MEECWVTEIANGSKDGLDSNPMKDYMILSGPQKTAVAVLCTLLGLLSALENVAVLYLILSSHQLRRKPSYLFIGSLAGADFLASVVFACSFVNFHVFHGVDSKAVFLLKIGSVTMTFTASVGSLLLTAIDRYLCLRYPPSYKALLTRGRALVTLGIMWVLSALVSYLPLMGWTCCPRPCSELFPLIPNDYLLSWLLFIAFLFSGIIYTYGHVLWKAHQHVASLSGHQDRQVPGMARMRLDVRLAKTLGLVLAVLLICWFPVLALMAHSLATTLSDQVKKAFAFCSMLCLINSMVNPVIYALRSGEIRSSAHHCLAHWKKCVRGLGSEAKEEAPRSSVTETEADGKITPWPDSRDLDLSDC
Experimental: as §1, §2, §3

## COc1ccc(CNS(=O)(=O)c2ccc(Cc3ccc(S(=O)(=O)NCc4ccc(OC)cc4)cc3)cc2)cc1 [M1i-124d1]
[1]
  Phosphorylation of IKKα/β (phospho-IKK/total IKK): leads to inhibition

## O=S(=O)(NCc1ccc2c(c1)OCO2)c1ccc(Cc2ccc(S(=O)(=O)NCc3ccc4c(c3)OCO4)cc2)cc1 [M1i-124]
[2]
  IC50: 800 nM
[3]
  IC50: 1200 nM
[4]
  IC50: 9900 nM
